From ChEMBL document CHEMBL6083266, “Diastereomeric pure pyrazolyl-indolyl dihydrofurans: Unveiling isomeric selectivity in antibacterial action via in vitro and in silico insights” (Bioorg Med Chem Lett, 2024)
Converted amounts (≈) assume the structure as drawn.

Key:
Staphylococcus aureus [1] = experiment: Antibacterial activity against methicillin-resistant Staphylococcus aureus; assay type: functional
[2] = Cytotoxicity against mouse fibroblast cells assessed as cell viability at […] (reference value: 90.23 %); assay type: toxicity, cell-based; set-up: dose or concentration left out as unconfirmed; conditions: read-out: Activity
Shigella flexneri = experiment: Antimicrobial activity against Shigella flexneri by serial dilution method; assay type: functional
Bacillus cereus = experiment: Antimicrobial activity against Bacillus cereus by serial dilution method; assay type: functional
Candida albicans = experiment: Antimicrobial activity against Candida albicans by serial dilution method; assay type: functional
Salmonella typhi = experiment: Antimicrobial activity against Salmonella typhi by serial dilution method; assay type: functional, Salmonella enterica subsp. enterica serovar Typhi; conditions: Salmonella enterica
Escherichia coli = experiment: Antimicrobial activity against Escherichia coli by serial dilution method; assay type: functional
Staphylococcus aureus [3] = experiment: Antimicrobial activity against Staphylococcus aureus by serial dilution method; assay type: functional
Pseudomonas aeruginosa = experiment: Antimicrobial activity against Pseudomonas aeruginosa by serial dilution method; assay type: functional
Listeria monocytogenes = experiment: Antimicrobial activity against Listeria monocytogenes by serial dilution method; assay type: functional

CC(=O)/C(=C\c1cn(CC(=O)N2CCCCC2)c2ccccc12)n1c([N+](=O)[O-])cnc1C
MIC (Staphylococcus aureus [1]): 1 mg/L (≈ 2.3 µM)

CCOC(=O)C1(C(=O)OCC)C[C@@H](c2c[nH]c3ccc(C)cc23)O[C@H]1c1cn(-c2ccccc2)nc1-c1ccc(F)cc1
viability [2]: 99.2%

CC1(C)S[C@@H]2[C@H](NC(=O)[C@H](N)c3ccc(O)cc3)C(=O)N2[C@H]1C(=O)O [AMOXICILLIN]
MIC (Shigella flexneri): 3.12 mg/L (≈ 8.55 µM)
MIC (Bacillus cereus): 3.12 mg/L (≈ 8.55 µM)
MIC (Candida albicans): 6.25 mg/L (≈ 17.1 µM)
MIC (Salmonella typhi): 3.12 mg/L (≈ 8.55 µM)
MIC (Escherichia coli): 3.12 mg/L (≈ 8.55 µM)
MIC (Staphylococcus aureus [3]): 3.12 mg/L (≈ 8.55 µM)
MIC (Pseudomonas aeruginosa): 3.12 mg/L (≈ 8.55 µM)
MIC (Listeria monocytogenes): 3.12 mg/L (≈ 8.55 µM)

CCOC(=O)C1(C(=O)OCC)C[C@@H](c2c[nH]c3ccc(OC)cc23)O[C@H]1c1cn(-c2ccccc2)nc1-c1ccc(Cl)cc1
viability [2]: 88.8%

CCOC(=O)C1(C(=O)OCC)C[C@@H](c2c[nH]c3ccc(OC)cc23)O[C@H]1c1cn(-c2ccccc2)nc1-c1ccc(C)cc1
viability [2]: 88.9%

CCOC(=O)C1(C(=O)OCC)C[C@@H](c2c[nH]c3ccc(C)cc23)O[C@H]1c1cn(-c2ccccc2)nc1-c1ccc(C)cc1
viability [2]: 94.2%

CCOC(=O)C1(C(=O)OCC)C[C@@H](c2c[nH]c3ccc(F)cc23)O[C@H]1c1cn(-c2ccccc2)nc1-c1ccc(C)cc1
viability [2]: 96.5%

CCOC(=O)C1(C(=O)OCC)C[C@@H](c2c[nH]c3ccc(Cl)cc23)O[C@H]1c1cn(-c2ccccc2)nc1-c1ccc(OC)cc1
viability [2]: 91.4%

CCOC(=O)C1(C(=O)OCC)C[C@@H](c2c[nH]c3ccc(C)cc23)O[C@H]1c1cn(-c2ccccc2)nc1-c1ccc(OC)cc1
viability [2]: 93.5%

CCOC(=O)C1(C(=O)OCC)C[C@@H](c2c[nH]c3ccc(F)cc23)O[C@H]1c1cn(-c2ccccc2)nc1-c1ccc(OC)cc1
viability [2]: 94.6%

CCOC(=O)C1(C(=O)OCC)C[C@@H](c2c[nH]c3ccccc23)O[C@H]1c1cn(-c2ccccc2)nc1-c1ccc(C)cc1
viability [2]: 95.3%

CCOC(=O)C1(C(=O)OCC)C[C@@H](c2c[nH]c3ccc(C)cc23)O[C@H]1c1cn(-c2ccccc2)nc1-c1ccc(Cl)cc1
viability [2]: 92.3%

CCOC(=O)C1(C(=O)OCC)C[C@@H](c2c[nH]c3ccccc23)O[C@H]1c1cn(-c2ccccc2)nc1-c1ccc(Cl)cc1
MIC (Shigella flexneri): 6.25 mg/L (≈ 10.7 µM)
MIC (Bacillus cereus): 1.56 mg/L (≈ 2.67 µM)
MIC (Candida albicans): 12.5 mg/L (≈ 21.4 µM)
viability [2]: 98.1%
MIC (Salmonella typhi): 1.56 mg/L (≈ 2.67 µM)
MIC (Escherichia coli): 3.12 mg/L (≈ 5.35 µM)
MIC (Staphylococcus aureus [3]): 1.56 mg/L (≈ 2.67 µM)
MIC (Pseudomonas aeruginosa): 1.56 mg/L (≈ 2.67 µM)
MIC (Listeria monocytogenes): 1.56 mg/L (≈ 2.67 µM)

OC(Cn1cncn1)(Cn1cncn1)c1ccc(F)cc1F [FLUCONAZOLE]
MIC (Candida albicans): 6.25 mg/L (≈ 20.4 µM)

CCOC(=O)C1(C(=O)OCC)C[C@@H](c2c[nH]c3ccc(OC)cc23)O[C@H]1c1cn(-c2ccccc2)nc1-c1ccc(OC)cc1
viability [2]: 90.1%

CCOC(=O)C1(C(=O)OCC)C[C@@H](c2c[nH]c3ccc(Cl)cc23)O[C@H]1c1cn(-c2ccccc2)nc1-c1ccccc1
viability [2]: 94.3%

CCOC(=O)C1(C(=O)OCC)C[C@@H](c2c[nH]c3ccc(C)cc23)O[C@H]1c1cn(-c2ccccc2)nc1-c1ccccc1
viability [2]: 92.3%

CCOC(=O)C1(C(=O)OCC)C[C@@H](c2c[nH]c3ccccc23)O[C@H]1c1cn(-c2ccccc2)nc1-c1ccc(F)cc1
viability [2]: 99.1%

CCOC(=O)C1(C(=O)OCC)C[C@@H](c2c[nH]c3ccccc23)O[C@H]1c1cn(-c2ccccc2)nc1-c1ccc(OC)cc1
viability [2]: 94.3%

CCOC(=O)C1(C(=O)OCC)C[C@@H](c2c[nH]c3ccc(Cl)cc23)O[C@H]1c1cn(-c2ccccc2)nc1-c1ccc(F)cc1
viability [2]: 90.5%

CCOC(=O)C1(C(=O)OCC)C[C@@H](c2c[nH]c3ccc(OC)cc23)O[C@H]1c1cn(-c2ccccc2)nc1-c1ccc(F)cc1
viability [2]: 94.8%

Clc1cccc(-n2nc(C3CCNCC3)cc2/C=C/c2c[nH]c3ccc(Cl)cc23)c1
MIC (Staphylococcus aureus [1]): 1 mg/L (≈ 2.29 µM)

CCOC(=O)C1(C(=O)OCC)C[C@@H](c2c[nH]c3ccc(F)cc23)O[C@H]1c1cn(-c2ccccc2)nc1-c1ccc(F)cc1
viability [2]: 96.2%

CCOC(=O)C1(C(=O)OCC)C[C@@H](c2c[nH]c3ccc(OC)cc23)O[C@H]1c1cn(-c2ccccc2)nc1-c1ccccc1
viability [2]: 90.1%

CCOC(=O)C1(C(=O)OCC)C[C@@H](c2c[nH]c3ccccc23)O[C@H]1c1cn(-c2ccccc2)nc1-c1ccccc1
viability [2]: 93.2%

CCOC(=O)C1(C(=O)OCC)C[C@@H](c2c[nH]c3ccc(F)cc23)O[C@H]1c1cn(-c2ccccc2)nc1-c1ccccc1
viability [2]: 95.7%

CCOC(=O)C1(C(=O)OCC)C[C@@H](c2c[nH]c3ccc(Cl)cc23)O[C@H]1c1cn(-c2ccccc2)nc1-c1ccc(C)cc1
viability [2]: 97.6%

CCOC(=O)C1(C(=O)OCC)C[C@@H](c2c[nH]c3ccccc23)O[C@@H]1c1cn(-c2ccccc2)nc1-c1ccc(Cl)cc1
MIC (Shigella flexneri): 12.5 mg/L (≈ 21.4 µM)
MIC (Bacillus cereus): 6.25 mg/L (≈ 10.7 µM)
MIC (Candida albicans): 12.5 mg/L (≈ 21.4 µM)
MIC (Salmonella typhi): 6.25 mg/L (≈ 10.7 µM)
MIC (Escherichia coli): 6.25 mg/L (≈ 10.7 µM)
MIC (Staphylococcus aureus [3]): 6.25 mg/L (≈ 10.7 µM)
MIC (Pseudomonas aeruginosa): 3.12 mg/L (≈ 5.35 µM)
MIC (Listeria monocytogenes): 12.5 mg/L (≈ 21.4 µM)

CCOC(=O)C1(C(=O)OCC)C[C@@H](c2c[nH]c3ccc(F)cc23)O[C@H]1c1cn(-c2ccccc2)nc1-c1ccc(Cl)cc1
viability [2]: 99.1%

CCOC(=O)C1(C(=O)OCC)C[C@@H](c2c[nH]c3ccc(Cl)cc23)O[C@H]1c1cn(-c2ccccc2)nc1-c1ccc(Cl)cc1
viability [2]: 95.2%
